Among the data in ChEMBL document CHEMBL1151930, “Physicochemical determinants of human renal clearance” (J Med Chem, 2009) are CL renal values, retold here.

This data set is described as follows: clinical. To be noted: human, in vivo.
`COc1ccc([C@@H]2Sc3ccccc3N(CCN(C)C)C(=O)[C@@H]2OC(C)=O)cc1` [DILTIAZEM] showed a CL renal of 9.23 mL/min/kg.
For the compound `O=C1CN=C(c2ccccc2)c2cc([N+](=O)[O-])ccc2N1` [NITRAZEPAM], the CL renal was found to be 0.01 mL/min/kg.
`COc1cc(OC)c(C(=O)CCCN2CCCC2)c(OC)c1` [BUFLOMEDIL] returned a CL renal of 1.3 mL/min/kg.
Take `C[C@@H]1CN(c2c(F)c(N)c3c(=O)c(C(=O)O)cn(C4CC4)c3c2F)C[C@H](C)N1` [SPARFLOXACIN]: the CL renal is 0.4 mL/min/kg.
The result for `Nc1ccn([C@@H]2O[C@H](CO)[C@@H](O)C2(F)F)c(=O)n1` [GEMCITABINE] reads 3.2 mL/min/kg.
`OCCN1C[C@H](O)[C@@H](O)[C@H](O)[C@H]1CO` [MIGLITOL] had a CL renal of 1.7 mL/min/kg.
`Nc1nc(O)c2ncn(COC(CO)CO)c2n1` [GANCICLOVIR] registered a CL renal of 4.14 mL/min/kg.
The result for `O=P(O)(O)C(O)(Cc1cccnc1)P(=O)(O)O` [RISEDRONIC ACID] reads 1.31 mL/min/kg; that for `CCOc1ccccc1OCCN[C@H](C)Cc1ccc(OC)c(S(N)(=O)=O)c1` [TAMSULOSIN], 0.08 mL/min/kg.
For the compound `NC[C@H]1O[C@H](O[C@H]2[C@H](O)[C@@H](O[C@H]3O[C@H](CO)[C@@H](O)[C@H](N)[C@H]3O)[C@H](N)C[C@@H]2N)[C@H](N)C[C@@H]1O` [TOBRAMYCIN], the CL renal came out at 1.19 mL/min/kg.
The value for `CC1(C)S[C@@H]2[C@H](NC(=O)[C@H](NC(=O)N3CCNC3=O)c3ccccc3)C(=O)N2[C@H]1C(=O)O` [AZLOCILLIN] was 1.67 mL/min/kg; that for `Cc1onc(-c2c(F)cccc2Cl)c1C(=O)N[C@@H]1C(=O)N2[C@@H]1SC(C)(C)[C@@H]2C(=O)O` [FLOXACILLIN] was 1.56 mL/min/kg; that for `CC(C)c1nc(N(C)S(C)(=O)=O)nc(-c2ccc(F)cc2)c1/C=C/[C@@H](O)C[C@@H](O)CC(=O)O` [ROSUVASTATIN] was 3.3 mL/min/kg.
The value for `CC(C)(O/N=C(\C(=O)N[C@@H]1C(=O)N2C(C(=O)[O-])=C(C[n+]3ccccc3)CS[C@H]12)c1csc(N)n1)C(=O)O` [CEFTAZIDIME] was 2.13 mL/min/kg; that for `Cc1c(OCC(F)(F)F)ccnc1C[S+]([O-])c1nc2ccccc2[nH]1` (configuration not stated) [LANSOPRAZOLE] was 0.04 mL/min/kg; that for `COc1ccc(CCNCC(O)COc2cccc(C)c2)cc1OC` (configuration not stated) [BEVANTOLOL] was 0.06 mL/min/kg.
The result for `CO/N=C(\C(=O)N[C@@H]1C(=O)N2C(C(=O)O)=C(COC(C)=O)CS[C@H]12)c1csc(N)n1` [CEFOTAXIME] reads 1.37 mL/min/kg.
For `O=c1[nH]cc(F)c(=O)[nH]1` [FLUOROURACIL], the CL renal stood at 1.1 mL/min/kg.
The value for `COc1cccc2c1C(=O)c1c(O)c3c(c(O)c1C2=O)C[C@@](O)(C(=O)CO)C[C@@H]3O[C@H]1C[C@H](N)[C@H](O)[C@H](C)O1` [DOXORUBICIN] was 1.83 mL/min/kg.
As for `Nc1nc(NC2CC2)c2ncn([C@H]3C=C[C@@H](CO)C3)c2n1` [ABACAVIR], the CL renal stood at 0.15 mL/min/kg.
The value for `CCCc1nc2c(C)cc(-c3nc4ccccc4n3C)cc2n1Cc1ccc(-c2ccccc2C(=O)O)cc1` was 0.08 mL/min/kg.
The value for `OC(Cn1cncn1)(Cn1cncn1)c1ccc(F)cc1F` [FLUCONAZOLE] was 0.23 mL/min/kg.
The value for `NC12CC3CC(CC(C3)C1)C2` [AMANTADINE] was 4.8 mL/min/kg; that for `Cc1ncc([N+](=O)[O-])n1CCO` [METRONIDAZOLE] was 0.19 mL/min/kg.
As to `CN(C)CCc1c[nH]c2ccc(C[C@H]3COC(=O)N3)cc12` [ZOLMITRIPTAN], the CL renal came to 2.2 mL/min/kg.
The result for `CC(=O)Oc1ccccc1C(=O)O` [ASPIRIN] reads 0.24 mL/min/kg; that for `CC(C(=O)O)c1ccc(C(=O)c2cccs2)cc1` (configuration not stated) [SUPROFEN], 0.04 mL/min/kg.
The result for `CC(=O)[C@]1(O)Cc2c(O)c3c(c(O)c2[C@@H](O[C@H]2C[C@H](N)[C@H](O)[C@H](C)O2)C1)C(=O)c1ccccc1C3=O` [IDARUBICIN] reads 1.8 mL/min/kg; that for `O=C(O)CCCc1ccc(N(CCCl)CCCl)cc1` [CHLORAMBUCIL], 0.03 mL/min/kg.
Consider `CC[C@@]1(O)C(=O)OCc2c1cc1n(c2=O)Cc2cc3c(CN(C)C)c(O)ccc3nc2-1` [TOPOTECAN], for which the CL renal is 5.2 mL/min/kg.
The value for `CN1CCN(c2c(F)cc3c(=O)c(C(=O)O)cn(CCF)c3c2F)CC1` [FLEROXACIN] was 1.49 mL/min/kg; that for `O=C1CN=C(c2ccccc2Cl)c2cc([N+](=O)[O-])ccc2N1` [CLONAZEPAM] was 0.01 mL/min/kg.
The result for `COc1ccc(C(=O)Nc2ccccc2CCC2CCCCN2C)cc1` (configuration not stated) [ENCAINIDE] reads 0.78 mL/min/kg; that for `COc1cc2c3cc1Oc1cc(ccc1O)C[C@@H]1c4c(cc(OC)c(O)c4Oc4ccc(cc4)C[C@@H]3N(C)CC2)CC[N+]1(C)C.[Cl-]`, 2.14 mL/min/kg.
The compound `CN(C)C(=O)Oc1ccc[n+](C)c1` [PYRIDOSTIGMINE] yielded a CL renal of 7.2 mL/min/kg.
The value for `NC(=O)NO` [HYDROXYUREA] was 0.54 mL/min/kg; that for `CCOC(=O)Nc1ccc(NCc2ccc(F)cc2)nc1N` [FLUPIRTINE] was 0.27 mL/min/kg.
The result for `CN(C)c1cc(NC(=O)CNC(C)(C)C)c(O)c2c1C[C@H]1C[C@H]3[C@H](N(C)C)C(O)=C(C(N)=O)C(=O)[C@@]3(O)C(O)=C1C2=O` [TIGECYCLINE] reads 0.57 mL/min/kg; that for `O=C(c1ccc(F)cc1)C1CCN(CCn2c(=O)[nH]c3ccccc3c2=O)CC1` [KETANSERIN], 0.05 mL/min/kg.
The value for `CN(C)CCc1c[nH]c2ccc(CS(=O)(=O)N3CCCC3)cc12` [ALMOTRIPTAN] was 5.79 mL/min/kg; that for `CC(=O)Nc1nnc(S(N)(=O)=O)s1` [ACETAZOLAMIDE] was 0.64 mL/min/kg.
Consider `COCCc1ccc(OCC(O)CNC(C)C)cc1` (configuration not stated) [METOPROLOL], for which the CL renal is 0.65 mL/min/kg.
The value for `C[C@]12C=CC(=O)C=C1CC[C@@H]1[C@@H]2C(=O)C[C@@]2(C)[C@H]1CC[C@]2(O)C(=O)CO` [PREDNISONE] was 0.05 mL/min/kg; that for `O=C1c2c(O)ccc(O)c2C(=O)c2c(NCCNCCO)ccc(NCCNCCO)c21` [MITOXANTRONE] was 0.5 mL/min/kg; that for `COc1ccc2c3c1O[C@H]1C(=O)CC[C@@]4(O)[C@@H](C2)N(C)CC[C@]314` [OXYCODONE] was 1.1 mL/min/kg.
The value for `O=c1[nH]c2ccccc2n1CCCN1CCC(n2c(=O)[nH]c3cc(Cl)ccc32)CC1` [DOMPERIDONE] was 0.04 mL/min/kg.
`CN[C@H](CC(C)C)C(=O)N[C@H]1C(=O)N[C@@H](CC(N)=O)C(=O)N[C@H]2C(=O)N[C@H]3C(=O)N[C@H](C(=O)N[C@H](C(=O)O)c4cc(O)cc(O)c4-c4cc3ccc4O)[C@H](O)c3ccc(c(Cl)c3)Oc3cc2cc(c3O[C@@H]2O[C@H](CO)[C@@H](O)[C@H](O)[C@H]2O[C@H]2C[C@](C)(N)[C@H](O)[C@H](C)O2)Oc2ccc(cc2Cl)[C@H]1O` [VANCOMYCIN] came in with a CL renal of 1.03 mL/min/kg.
The value for `CCC1(c2cccc(O)c2)CCCCN(C)C1` (configuration not stated) [MEPTAZINOL] was 1.4 mL/min/kg; that for `O=C1Cc2cc(CCN3CCN(c4nsc5ccccc45)CC3)c(Cl)cc2N1` [ZIPRASIDONE] was 0.05 mL/min/kg.
Take `Oc1ccc2c(c1)[C@@]13CCCC[C@@]1(O)[C@@H](C2)N(CC1CCC1)CC3` [BUTORPHANOL]: the CL renal was found to be 2.05 mL/min/kg.
The compound `Nc1ccn(C[C@@H](CO)OCP(=O)(O)O)c(=O)n1.O.O` [CIDOFOVIR] registered a CL renal of 2.25 mL/min/kg.
The result for `CN(C)C(=N)N=C(N)N` [METFORMIN] reads 7.4 mL/min/kg; that for `N[C@@H](C(=O)N[C@@H]1C(=O)N2C(C(=O)O)=C(CSc3c[nH]nn3)CS[C@H]12)c1ccc(O)cc1` [CEFATRIZINE], 2.64 mL/min/kg; that for `COc1ccc2cc1Oc1cc3c(cc1OC)CC[N+](C)(C)[C@H]3Cc1ccc(cc1)Oc1c(OC)c(OC)cc3c1[C@@H](C2)[N+](C)(C)CC3.[I-].[I-]` [METOCURINE IODIDE], 0.52 mL/min/kg.
The result for `CCC(CC)O[C@@H]1C=C(C(=O)O)C[C@H](N)[C@H]1NC(C)=O` [OSELTAMIVIR CARBOXYLATE] reads 4.46 mL/min/kg; that for `NC(N)=Nc1nc(CSCCC(N)=NS(N)(=O)=O)cs1` [FAMOTIDINE], 4.42 mL/min/kg; that for `CN(C)CCC=C1c2ccccc2CCc2ccccc21` [AMITRIPTYLINE], 0.12 mL/min/kg.
Regarding `COc1ccc2c3c1O[C@H]1[C@@H](O)C=C[C@H]4[C@@H](C2)N(C)CC[C@@]341` [CODEINE], the CL renal was 1.7 mL/min/kg.
The result for `Cc1ccccc1N1C(=O)c2cc(S(N)(=O)=O)c(Cl)cc2NC1C` (configuration not stated) [METOLAZONE] reads 1.12 mL/min/kg; that for `O=C(N[C@H](CO)[C@H](O)c1ccc([N+](=O)[O-])cc1)C(Cl)Cl` [CHLORAMPHENICOL], 0.24 mL/min/kg; that for `CC[C@H]1OC(=O)[C@H](C)C(=O)[C@H](C)[C@@H](O[C@@H]2O[C@H](C)C[C@H](N(C)C)[C@H]2O)[C@](C)(OC)C[C@@H](C)C(=O)[C@H](C)[C@H]2N(CCCCn3cnc(-c4cccnc4)c3)C(=O)O[C@]12C` [TELITHROMYCIN], 3.14 mL/min/kg.
The result for `O.O=P(O)(O)C(O)(Cn1ccnc1)P(=O)(O)O` [ZOLEDRONIC ACID] reads 0.79 mL/min/kg.
The result for `N#Cc1ccc(C(c2ccc(C#N)cc2)n2cncn2)cc1` [LETROZOLE] reads 0.02 mL/min/kg.
Regarding `C[C@H]1O[C@@H](O[C@H]2[C@@H](O)C[C@H](O[C@H]3[C@@H](O)C[C@H](O[C@H]4CC[C@@]5(C)[C@H](CC[C@@H]6[C@@H]5C[C@@H](O)[C@]5(C)[C@@H](C7=CC(=O)OC7)CC[C@]65O)C4)O[C@@H]3C)O[C@@H]2C)C[C@H](O)[C@@H]1O` [DIGOXIN], the CL renal was determined as 1.7 mL/min/kg.
The result for `COc1ccc2c3c1O[C@H]1C[C@@H](O)C=C[C@@]31CCN(C)C2` [GALANTAMINE] reads 1.57 mL/min/kg; that for `Cc1nc2n(c(=O)c1CCN1CCC(c3noc4cc(F)ccc34)CC1)CCCC2` [RISPERIDONE], 0.18 mL/min/kg; that for `CC(CN1c2ccccc2Sc2ccccc21)N(C)C` (configuration not stated) [PROMETHAZINE], 0.14 mL/min/kg.
For `CN(C)CCCC1(c2ccc(F)cc2)OCc2cc(C#N)ccc21` (configuration not stated) [CITALOPRAM], the CL renal came out at 0.45 mL/min/kg.
The value for `C[C@H]1O[C@@H](n2cc(F)c(=O)[nH]c2=O)[C@H](O)[C@@H]1O` [DOXIFLURIDINE] was 4.3 mL/min/kg; that for `CCN(C)C(=O)Oc1cccc([C@H](C)N(C)C)c1` [RIVASTIGMINE] was 0.12 mL/min/kg; that for `CCCCc1nc(Cl)c(CO)n1Cc1ccc(-c2ccccc2-c2nn[nH]n2)cc1` [LOSARTAN] was 0.9 mL/min/kg.
In turn, `CC(C)NCC(O)COc1cccc2ccccc12` (configuration not stated) [PROPRANOLOL] came in with a CL renal of 1.2 mL/min/kg.
